# Data: patent US20150337351A1, “METHODS OF MICROORGANISM IMMOBILIZATION” (priority 2014, published 2015)
# Columns and labels:
# [1] = test system: Escherichia coli ATCC 25922 (Ecol); experiment: Biosensor mixed species diffusion assay (immobilized cells, microscopic detection), growth of sentinel strain; type: cell-based; details: for Mixed species resistance factor diffusion? / Ecol growth in distal site? / Ecol growth in proximal site?: CAZ 16 (16 μg/mL); for Ecol growth in distal site?: distal from Paer; for Ecol growth in proximal site?: proximal to Paer
# Experimental: (§1) A mixed species diffusion variation of Hodge test using a biosensor with immobilized cells and microscopic detection was performed using the same bacterial strains. Heavy suspensions of Ecol and Paer were prepared in L-histidine buffer from fresh overnight blood agar plates. Heavy suspensions were diluted in normal saline to produce 0.5 McFarland suspensions, noting the volumes of each suspension required and using the same volumes to produce 10^8 cfu/mL suspensions of each strain in L-histidine. These suspensions were further diluted to create […] and 2×10^5 cfu/mL suspensions for heavy and moderate density working samples. The working samples were then diluted 1:1 in 2 mM L-DOPA for EKC.
# (§2) The strains were next introduced to a biosensor for EKC, immobilization, and detection. Paer suspensions were loaded first, placing 5 uL in the exit port side (to maintain the resistant Paer isolate in one half of each channel) of each biosensor flowcell channel to cover one half of the flowcell. Six flowcells were loaded with each concentration. EKC was performed for 5 minutes at 1.5V, and then all flowcells were washed with two aliquots of 160 μL 1 mM L-DOPA (from the entry port). Ecol suspensions were next loaded, introducing 20 μL of cells suspension from the entry port to cover the full flowcell. Six flowcells were loaded with each concentration. EKC was performed for 5 minutes at 1.5V, and all flowcells washed with 160 μL of 1/10 MHB. The manner in which the cells were introduced and captures created a site comprising Ecol cells that were distal from any Paer cells (i.e., on the entry port side of the flowcell), as well as Ecol cells that were proximal to the Paer cells (i.e., on the exit port side of the flowcell).
# (§3) Antibiotic media were prepared for immobilization and inhibition testing as follows. […] An immobilization medium source plate was prepared in the detection system and maintained at 45° C. The source plate wells were loaded with 20 μL of the 10× stocks and MHB without antibiotic for growth controls. The sample cassette was placed in the detection system and maintained at 40° C. A 180 uL volume of 0.944% MHA was added to each well of the source plate and mixed, and 100 uL of pre-immobilization immobilizing medium (with an agar concentration of 0.850%) was withdrawn and introduced to a flowcell in accordance with the experimental design. The loaded biosensor was allowed to equilibrate for 5 minutes, and was then removed and cooled for 5 minutes to induce the agar immobilizing agent to change to solid phase. The flowcell ports were then sealed, and growth, imaging, and analysis were performed, with examination of each flowcell for growth of Paer, examination of the distal portion of each flowcell for growth of Ecol in the absence of Paer (distal sensitivity), and examination of the proximal portion of each flowcell for growth of Ecol in the presence of Paer (proximal resistance), indicative of a positive mixed species resistance due to diffusion of metallo-beta-lactamase.
# (§4) In order to test for enzyme-mediated cross-species resistance effects, a method for was devised to test a sensitive strain, Escherichia coli ATCC 25922 (Ecol), in the presence of a resistant strain, Pseudomonas aeruginosa IHMA 519749 (Paer) in the immobilized format. The method involved first immobilizing the resistant strain on the surface of a portion of each test flowcell of the cassette (approximately half) and then immobilizing the sensitive (sentinel) strain on the surface of the full flowcell including the area containing the resistant strain. This strategy provides an internal control for treatment effects on the sentinel strain in an area far from the resistant strain along with an area where close-field effects can be observed in the same flowcell. […]
# [2] = test system: P. aeruginosa 519749 (Paer); experiment: Plate-based disk diffusion tests, resistant strain; type: cell-based, Pseudomonas aeruginosa; details: blood agar lawn plates, antibiotic disk, overnight at 35° C.
# Experimental: (§5) Several nutrient agar plating methods employing antibiotics, other chemicals, and one or more species of bacteria have been devised to study these mechanisms. The most basic of these tests, the disk-diffusion method, employs a single test strain of bacteria which is used to create a uniform layer or lawn when grown. A disk-containing antibiotic is placed on the inoculated plate and the plate is then incubated to grow the lawn. In cases where the strain is sensitive to the antibiotic, a zone of no growth is observed around the disk. The distance from the disk to the edge of this zone is an indicator of the level of resistance to the antibiotic present in the disk, based on how far the antibiotic can diffuse into the nutrient medium. A variation on this test is to employ a second disk or drop of fluid near the antibiotic disk that contains a chemical that can affect the antibiotic response. Differences between the zone in areas near the chemical and away from the chemical can indicate the type of resistance mechanism at work in the test. In this case, the chelating agent ethylenediamine tetraacetic acid (EDTA) (Sigma-Aldrich) can be used to test for the presence of a class of antibiotic resistance enzyme called metallo-beta-lactamase, which is inhibited by EDTA. The positive result for this test is a larger zone of inhibition near the EDTA indicating reduced effectiveness of the enzyme. […]
# [3] = test system: Pseudomonas aeruginosa IHMA 519749 (Paer); experiment: Biosensor mixed species diffusion assay (immobilized cells, microscopic detection), growth of resistant strain; type: cell-based; details: for Paer growth?: CAZ 16 (16 μg/mL), MHA 0.850% agar, 4 hours
# Experimental: as §1, §2, §3, §4
# E. coli 25922 (Ecol) = experiment: Plate-based disk diffusion tests, sensitive strain; type: cell-based, Escherichia coli; details: blood agar lawn plates, antibiotic disk, overnight at 35° C.
# Experimental: as §5
# [4] = Flowcell 5, Ecol 10^6/Paer 10^6
# [5] = Flowcell 5, Ecol 10^6/Paer 10^6, 4 hours
# [6] = Flowcell 6, Ecol 10^6/Paer 10^5
# [7] = Flowcell 6, Ecol 10^6/Paer 10^5, 4 hours
# [8] = Flowcell 7, Ecol 10^5/Paer 10^6
# [9] = Flowcell 7, Ecol 10^5/Paer 10^6, 4 hours
# [10] = Flowcell 8, Ecol 10^5/Paer 10^5
# [11] = Flowcell 8, Ecol 10^5/Paer 10^5, 4 hours
structure (smiles),measurement,setting,value
"CC(C)(O/N=C(\C(=O)N[C@@H]1C(=O)N2C(C(=O)[O-])=C(C[n+]3ccccc3)CS[C@H]12)c1csc(N)n1)C(=O)O [CAZ, ceftazidime]",Ecol growth and morphology under antibiotic (time-lapse images),"[1]; CAZ at 16 μg/mL, immobilized in MHA, 4 hours",slight growth or elongation of the single cell with later fading and in many colonies complete lysis
same,Mixed species resistance factor diffusion?,[1]; [4],No
same,Ecol growth in distal site?,[1]; [5],No
same,Ecol growth in proximal site?,[1]; [5],No
same,Mixed species resistance factor diffusion?,[1]; [6],No
same,Ecol growth in distal site?,[1]; [7],No
same,Ecol growth in proximal site?,[1]; [7],No
same,Mixed species resistance factor diffusion?,[1]; [8],No
same,Ecol growth in distal site?,[1]; [9],No
same,Ecol growth in proximal site?,[1]; [9],No
same,Mixed species resistance factor diffusion?,[1]; [10],No
same,Ecol growth in distal site?,[1]; [11],No
same,Ecol growth in proximal site?,[1]; [11],No
same,Resistance of Paer isolate in plating-based tests,[2],high resistance
same,"Zone of inhibition, Paer isolate",[2],no zone of inhibition observed
same,Paer growth morphology and rate under antibiotic vs growth control,"[3]; CAZ at 16 μg/mL, immobilized in MHA, proximal site",same morphology and growth rate as the growth control condition
same,Paer growth?,[3]; [4],Yes
same,Paer growth?,[3]; [6],Yes
same,Paer growth?,[3]; [8],Yes
same,Paer growth?,[3]; [10],Yes
same,Susceptibility of Ecol strain in plating-based tests,E. coli 25922 (Ecol),sensitive
